From ChEMBL document CHEMBL1151383, “Antitumor agents 50. 1 Morindaparvin-A, a new antileukemic anthraquinone, and alizarin-1-methyl ether from Morinda parvifolia, and the antileukemic activity of the related derivatives” (1982)
≈ marks a conversion by molar mass, not a printed value. Calls of active or inactive are those of the source. The rule behind the calls is not given here.

Columns and labels:
Assay type in all cases: functional
P388 [1] = assay: Antileukemic activity against mouse P388 cells xenografted in BDF1 mouse at 10 mg/kg/day relative to control
[2] = Antitumor activity against mouse CA-755 cells xenografted in mouse assessed as reduction in tumor weight at 450 mg/kg/day; parameters: scale not given: the % may be the effect or the level left
P388 [3] = assay: Cytotoxicity against mouse P388 cells; conditions: read-out: ED50 (the source's name)
KB = assay: Cytotoxicity against human KB cells; conditions: read-out: ED50 (the source's name)

Compound | T/C (P388 [1]) [%] | Activity (P388 [1]) | other results
O=C1c2ccccc2C(=O)c2c1ccc(O)c2O [ATHRAQUINONES A] | 134 |  | Activity [2]: 60%
CC(=O)Oc1ccc2c(c1O)C(=O)c1ccccc1C2=O |  | inactive | 
CC(C)=CC(=O)Oc1ccc2c(c1O)C(=O)c1ccccc1C2=O |  | inactive | 
O=C(/C=C/c1ccccc1)Oc1ccc2c(c1O)C(=O)c1ccccc1C2=O |  | inactive | 
COc1ccc2c(c1O)C(=O)c1ccccc1C2=O | 126 |  | 
O=C1c2ccccc2C(=O)c2c1ccc1c2OCCO1 | 130 |  | 
CC(C)=CC(=O)Oc1ccc2c(c1OC(=O)C=C(C)C)C(=O)c1ccccc1C2=O |  | inactive | 
COc1c(O)ccc2c1C(=O)c1ccccc1C2=O | 136 |  | EC50 (P388 [3]): 27 µg/mL (≈ 106 µM); EC50 (KB): > 10 µg/mL
CC(=O)Oc1ccc2c(c1OC(C)=O)C(=O)c1ccccc1C2=O |  | inactive | 
O=C(/C=C/c1ccccc1)Oc1ccc2c(c1OC(=O)/C=C/c1ccccc1)C(=O)c1ccccc1C2=O |  | inactive | 
O=C1c2ccccc2C(=O)c2c1ccc1c2OCO1 | 129 |  | EC50 (P388 [3]): 1.85 µg/mL (≈ 7.33 µM); EC50 (KB): > 10 µg/mL
